According to PubChem BioAssay (NCI):
Values joined by “and” are separate entries in the source; they are usually repeats but may differ in a detail not shown here. Equal entries are not always repeated.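 Five concentrations, 48 hours, 96-well plates. GI50 marks 50% less growth. Definition used: TGI = concentration required for complete inhibition of growth.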

Assays:
Experiment in all cases: inhibition of tumour cell growth, NCI panel, 48 h
SK-MEL-28 melanoma = tested on: SK-MEL-28 melanoma
SF-295 CNS = tested on: SF-295 CNS
NCI-H226 lung = tested on: NCI-H226 lung
SK-OV-3 ovarian = tested on: SK-OV-3 ovarian
A498 renal = tested on: A498 renal
SF-268 CNS = tested on: SF-268 CNS
LOX IMVI melanoma = tested on: LOX IMVI melanoma
MALME-3M melanoma = tested on: MALME-3M melanoma
UO-31 renal = tested on: UO-31 renal
NCI/ADR-RES ovarian = tested on: NCI/ADR-RES ovarian

Structure (SMILES) | TGI (SK-MEL-28 melanoma) | TGI (SF-295 CNS) | TGI (NCI-H226 lung) | TGI (SK-OV-3 ovarian) | TGI (A498 renal) | TGI (SF-268 CNS) | TGI (LOX IMVI melanoma) | TGI (MALME-3M melanoma) | TGI (UO-31 renal) | GI50 (SK-MEL-28 melanoma) | GI50 (SF-295 CNS) | GI50 (NCI-H226 lung) | GI50 (NCI/ADR-RES ovarian) | TGI (NCI/ADR-RES ovarian) | GI50 (SK-OV-3 ovarian) | GI50 (SF-268 CNS) | GI50 (LOX IMVI melanoma) | GI50 (UO-31 renal) | GI50 (MALME-3M melanoma) | GI50 (A498 renal)
C=C(CS(=O)(=O)c1ccccc1)[P+](c1ccccc1)(c1ccccc1)c1ccccc1 | 25.5 µM | 50 µM | 36.7 µM | 81.6 µM | > 100 µM | 29.6 µM | 30 µM | 38.3 µM | 94.3 µM |  |  |  |  |  |  |  |  |  |  | 
CC(=O)OC1C(CCl)OC(N=[N+]=[N-])C(OC(C)=O)C1OC(C)=O (stereo unspecified) | > 100 µM | > 100 µM |  | > 100 µM | > 100 µM | > 100 µM |  | > 100 µM | > 100 µM |  |  |  |  |  |  |  |  |  |  | 
CC1=C(c2cc(C(=O)Nc3ccc(Cl)c(Cl)c3)nc(N)n2)Sc2ccccc2N1 | > 100 µM | > 100 µM | > 100 µM | > 100 µM | > 100 µM | > 100 µM | > 100 µM | > 100 µM | > 100 µM |  |  |  |  |  |  |  |  |  |  | 
CN(C)CCN=Cc1c2ccccc2c(=O)n2c1oc1ccccc12 | 23.1 µM | 9.71 µM | 36.7 µM | 24.3 µM |  | 20 µM | 16.1 µM |  | 28.6 µM | 10.5 µM | 2.89 µM | 10 µM | 13.7 µM | 32.6 µM | 8.44 µM | 5.56 µM | 4.18 µM | 6.67 µM |  | 
C=C1C(=O)O[C@@H]2C[C@@H]1CC[C@@]1(C)O[C@@H]1CC[C@@]1(C)O[C@@H]1CC[C@@]2(C)O | 34.8 µM | 60.6 µM | 35.9 µM | > 100 µM |  | > 100 µM | 31 µM | 42.3 µM | > 100 µM | 17.4 µM | 19.6 µM | 16.9 µM | 32.4 µM | 78.3 µM | 30.6 µM | 40.5 µM | 15.7 µM | 15.3 µM | 16.2 µM | 
COc1cc(C2CC(c3cc(C)ccc3C)=NN2c2ccc(S(=O)(=O)NC(=O)NCc3ccccc3)cc2)cc(OC)c1OC (stereo unspecified) | 5.5 µM |  | 15.6 µM | 18.4 µM | 9.03 µM | 34.8 µM | > 100 µM | 9.61 µM | 15.6 µM | 2.26 µM |  | 3.63 µM | 4.18 µM | 31.7 µM | 4.98 µM | 4.9 µM | 3.79 µM | 3.56 µM | 3.48 µM | 3.09 µM
CC(C)(C)[Si](C)(C)O/N=C\c1ccc(O[Si](C)(C)C(C)(C)C)cc1 |  | > 100 µM |  | > 100 µM | > 100 µM | > 100 µM | 40.1 µM | > 100 µM | > 100 µM |  |  |  |  |  |  |  |  |  |  | 
CC[C@@H](C(=O)[C@@H](C)[C@@H](O)[C@H](C)[C@@H]1O[C@@H]([C@@H](CC)C(=O)O)CC[C@@H]1C)[C@H]1OC2(C=C[C@@H](O)[C@]3(CC[C@@](C)([C@H]4CC[C@](O)(CC)[C@H](C)O4)O3)O2)[C@H](C)C[C@@H]1C (stereo partly specified) | 1.31 µM | 19.8 µM |  | 22.6 µM | 0.458 µM | 26.3 µM | > 19 µM | 0.86 µM | > 41.4 µM | 0.63 µM | 0.263 µM |  | 0.434 µM | > 50 µM | 1.76 µM | 1.7 µM | 0.505 µM | 1.27 µM | 0.224 µM | 0.0276 µM
COC(=O)[C@@]1(C)CC[C@]2(C)CC[C@]3(C)C4=CC=C5C(=CC(=O)C(O)=C5C)[C@]4(C)CC[C@@]3(C)[C@@H]2C1 | 0.601 µM | 1.62 µM | 0.739 µM | 2.01 µM | 0.938 µM | 1.23 µM | 0.325 µM | 0.446 µM | 0.261 µM | 0.244 µM | 0.407 µM | 0.294 µM |  |  | 0.775 µM | 0.341 µM | 0.174 µM | 0.127 µM | 0.232 µM | 0.333 µM
C=C1Oc2nc3ccccc3c(=O)n2C1(C)C | > 100 µM | > 10 µM | > 100 µM | > 100 µM | > 100 µM | > 100 µM | > 100 µM | > 100 µM | > 100 µM |  |  |  |  |  |  |  |  |  |  | 
O=C(O)C1c2ccccc2C(C(=O)O)c2ccccc21 (stereo unspecified) |  | > 100 µM |  | > 100 µM | > 100 µM | > 100 µM | > 100 µM | > 100 µM | > 100 µM |  |  |  |  |  |  |  |  |  |  | 
COc1cc2cc[n+]3c4cc(OC)c(OC)cc4c(C)cc3c2cc1OC | > 100 µM | > 100 µM | > 100 µM | > 100 µM |  |  | > 100 µM | > 100 µM | > 100 µM |  |  |  |  |  |  |  |  |  |  | 
CC1(C)CC2C=C(C=O)C3(C=O)CC3(C)C2C1 (stereo unspecified) | 4.19 µM | 18.8 µM | 9.18 µM | 16.2 µM |  | 6.02 µM | 2.81 µM |  | 3.29 µM |  |  |  |  | 5.21 µM |  |  |  |  |  | 
COc1ccc2c(=O)c3cc([N+](=O)[O-])ccc3n(C)c2c1 | > 100 µM | > 100 µM | > 100 µM |  | > 100 µM | > 100 µM | > 100 µM | > 100 µM | > 100 µM |  |  |  |  | > 100 µM |  |  |  |  |  | 
CNc1ccc(-c2cc(=O)oc3ccc(Cl)cc23)cc1 | > 100 µM | > 100 µM | > 100 µM | > 100 µM |  | > 100 µM | > 100 µM |  | > 100 µM | 2.08 µM | 0.0479 µM and 0.0322 µM | 0.719 µM and 4.05 µM | 0.0371 µM and 0.0363 µM |  | 0.218 µM and 0.107 µM | 0.247 µM and 0.066 µM | 0.0636 µM and 0.0542 µM | 0.417 µM and 0.501 µM |  | 0.0811 µM and 0.0598 µM
COc1ccc(/C=C/c2cc(N3CCOCC3)c3cc(F)c(F)cc3n2)cc1OC | 11.6 µM | 14.9 µM | 4.82 µM | 9.17 µM | 4.63 µM | 16.5 µM | 2.27 µM |  | 10.3 µM | 1.44 µM | 0.653 µM | 1.1 µM | 0.432 µM | 3.03 µM | 1.32 µM | 0.775 µM | 0.516 µM | 0.347 µM |  | 1.23 µM
Cc1ccccc1N=Nc1c(O)[nH]c2ccccc12 | > 100 µM | > 100 µM | > 100 µM | > 100 µM |  | > 100 µM | > 100 µM |  | > 100 µM |  |  |  |  | > 100 µM |  |  |  |  |  | 
COc1cccc(NC(=O)CC(=O)N2NC(C)C(N=Nc3cccc(C(=O)O)c3)C2=O)c1 (stereo unspecified) | > 100 µM | > 100 µM | > 100 µM | > 100 µM | > 100 µM | > 100 µM | > 100 µM | > 100 µM | > 100 µM |  |  |  |  |  |  |  |  |  |  | 
